Measured values as given in patent publication US5519042A, “Method of treating hyperproliferative vascular disease” (priority 1994, dated 1996).

System: injured carotid arteries
Assay: Effect on intimal thickening in injured carotid arteries (balloon catheter injury, morphometry)
Type: in vivo, male Sprague-Dawley (SD) rats
Details: for Intima Percent (±S.E.): mean ± standard error, untreated injured control 46.06 ± 16.36
Procedure: The effect of N-(4-trifluoromethylphenyl)-5-methylisoxazole-carboxamide (compound I) on hyperproliferative vascular disease was established in an in vivo standard pharmacological test procedure that emulates the hyperproliferative effects observed in mammals that are undergoing intimal smooth muscle proliferation and are therefore developing restenosis. Cyclosporin A was also evaluated in these test procedure for the purpose of comparison.
Compound 1 was also evaluated in an in vivo standard pharmacological test procedure that emulates the vascular injury suffered and restenosis that develops following percutaneous transluminal coronary angioplasty in humans.
Intimal smooth muscle proliferation was produced by balloon catheter injury to the left carotid artery of groups of 6, male Sprague-Dawley (SD) rats. […] A balloon catheter (2 French Fogarty, Edwards Laboratories, Santa Anna, Calif.) was passed through the external carotid artery into the aorta. The balloon was then inflated with an amount of water sufficient to distend the common carotid artery and was then pulled back to the external carotid artery. The inflation and pull back were repeated three times. This procedure leads to complete denudation of the endothelium throughout the common carotid artery, and also some injury typically occurs to the medial smooth muscle cells.
During a 17-days period (3 days before operation to 13 days after operation), these rats were divided into 2 groups of 6 animals and treated daily with compound 1 (20 mg/kg/day, intraperitoneal (i.p.)) or cyclosporin A (3 mg/kg/day; i.p.).
An injured group not treated with any drug was used as an injured control to establish the amount of intimal thickening in the absence of treatment. The right carotid was used as an uninjured control in all groups.
After the 14 day post-operative period, the rats were sacrificed, the carotids removed. The mean areas of the intima, media and total blood vessel wall were measured by morphometry. The injured artery was also examined using histopathologic assays. Results are presented as an intima percent, expressed as follows: [formula]

Compound	decrease in the mean percentage intimal thickening compared with the untreated injured control group (20 mg/kg/day i.p.) [%]	Intima Percent (±S.E.) (20 mg/kg/day i.p., 3 days before to 13 days after operation) [%]	reduction in intimal thickening (in words) (3 mg/kg/day i.p.)	Intima Percent (±S.E.) (3 mg/kg/day i.p., 14 days) [%]
Cc1oncc1C(=O)Nc1ccc(C(F)(F)F)cc1 [Compound 1, N-(4-trifluoromethylphenyl)-5-methylisoxazole-4-carboxamide]	83	7.88 ± 7.88		
Cyclosporin A			failed to produce any meaningful reduction in intimal thickening	39.39 ± 26.06
